The record followed here is patent publication US20220339144A1, “PYRIDINYL INDOLE COMPOUNDS AND METHODS OF USE THEREOF” (Chinook Therapeutics Canada, Inc., priority 2021, published 2022).

For one assay, the target named is T1, AMPKα1β2γ1 (Homo sapiens, UniProt O43741+Q13131).
T1 construct: purchased Carna Biosciences (printed only as 'Biosciences') 02-147
The experiment in a line: AMPKα1β2γ1 biochemical assay (LabChip EZ Reader mobility shift). To be noted: second EC50 column of Table 1 (head repeats α1β1γ1; text says α1β2γ1 isoform); read-out: Human AMPK AMPKα1β1γ1 EC50. The procedure:
(§1) Compounds disclosed herein were evaluated for their ability to activate AMPKα1β1γ1 by measuring phosphorylation of a commercially available fluorescent AMPK substrate using the LabChip® EZ Reader microfluidic system that is based on a mobility shift principle in which unphosphorylated fluorescent substrates may be separated and distinguished from phosphorylated fluorescent substrates due to the difference in negative charge. Briefly, compounds were serial diluted 3-fold in 100% DMSO for an 11-point dose-response curve. A 20 nL aliquot of diluted compound was transferred into a 384-well plate using a liquid handler (Labcyte Inc., Echo 550). A pre-prepared solution (10 mM MgCl2, 0.01% Brij-35, 2 mM DTT, 0.05% BSA, 1 mM EGTA, and 50 mM HEPES pH 7.5) was combined with 0.83 nM AMPKα1β1γ1 (Carna Biosciences, 02-113). The enzyme solution (15 μL) was aliquoted into each well and the plate was incubated at 24° C. for 30 min. A second stock solution (10 mM MgCl2, 0.01% Brij-35, 2 mM DTT, 0.05% BSA, 1 mM EGTA, 800 μM ATP, and 50 mM HEPES pH 7.5) was combined with 6 μM fluorescent peptide substrate for AMPKal (Perkin Elmer, 760351). The kinase reaction was initiated by adding 5 μL of the second solution containing substrate and ATP to each well. The plate was incubated at 24° C. for 90 minutes and 75 μL of 0.5 M EDTA was added to terminate the reaction. The plates were analyzed using a LabChip® EZ Reader (Perkin Elmer, 122919) and the effective concentration to achieve 50% of the maximal activity (EC50) was calculated after normalizing to the DMSO vehicle control.
The same procedure above was also used to measure activation of the AMPKα1β2γ1 isoform, replacing AMPKα1β1γ1 with AMPKα1β2γ1 Biosciences 02-147).

A further assay has as its target T2, AMPKα1β1γ1 (Homo sapiens, UniProt Q13131+Q9Y478).
T2 construct: purchased Carna Biosciences 02-113
Kind of assay: AMPKα1β1γ1 biochemical assay (LabChip EZ Reader mobility shift). The note with it: EC50 of Table 1; activation, normalized to DMSO vehicle control; read-out: Human AMPK AMPKα1β1γ1 EC50. The procedure: as §1

pEC50: −log10 of the molar value.

Usually pEC50 stands for the negative decadic logarithm of the EC50, by convention in mol/L.

T2 sequence (Q13131 whole entry): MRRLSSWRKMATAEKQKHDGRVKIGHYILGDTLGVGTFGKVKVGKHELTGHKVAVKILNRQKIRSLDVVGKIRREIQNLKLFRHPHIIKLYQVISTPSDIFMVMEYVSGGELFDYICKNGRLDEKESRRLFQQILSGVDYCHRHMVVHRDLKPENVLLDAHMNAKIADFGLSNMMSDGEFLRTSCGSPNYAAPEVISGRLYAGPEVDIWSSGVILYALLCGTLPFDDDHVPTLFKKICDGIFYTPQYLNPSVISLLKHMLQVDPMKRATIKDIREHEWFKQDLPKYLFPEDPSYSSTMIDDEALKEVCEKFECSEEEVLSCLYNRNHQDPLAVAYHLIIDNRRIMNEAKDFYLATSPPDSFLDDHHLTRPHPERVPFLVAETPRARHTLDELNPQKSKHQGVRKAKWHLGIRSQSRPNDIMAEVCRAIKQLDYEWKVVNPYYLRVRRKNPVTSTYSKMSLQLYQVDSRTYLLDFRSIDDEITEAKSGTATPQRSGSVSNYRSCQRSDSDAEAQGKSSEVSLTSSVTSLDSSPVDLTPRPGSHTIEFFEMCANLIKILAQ
T2 sequence (Q9Y478 whole entry): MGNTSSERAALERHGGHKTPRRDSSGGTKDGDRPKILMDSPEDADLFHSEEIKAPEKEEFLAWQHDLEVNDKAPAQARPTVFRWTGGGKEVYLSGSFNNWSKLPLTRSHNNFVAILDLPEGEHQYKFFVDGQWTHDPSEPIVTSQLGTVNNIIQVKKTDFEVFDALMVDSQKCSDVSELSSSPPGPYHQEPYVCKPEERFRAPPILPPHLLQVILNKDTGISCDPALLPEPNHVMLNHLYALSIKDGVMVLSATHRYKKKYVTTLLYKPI
T2 sequence (P54619 whole entry partner): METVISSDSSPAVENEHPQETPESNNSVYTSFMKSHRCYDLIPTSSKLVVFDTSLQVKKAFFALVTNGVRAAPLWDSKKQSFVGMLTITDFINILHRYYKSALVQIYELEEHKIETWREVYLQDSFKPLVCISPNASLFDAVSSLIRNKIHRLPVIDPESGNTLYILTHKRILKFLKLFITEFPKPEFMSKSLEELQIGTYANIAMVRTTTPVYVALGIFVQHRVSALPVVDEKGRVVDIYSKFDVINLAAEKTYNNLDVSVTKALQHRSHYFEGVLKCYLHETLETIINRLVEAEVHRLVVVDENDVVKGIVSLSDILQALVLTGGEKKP
T1 sequence (Q13131 whole entry): as the sequence (Q13131 whole entry) above
T1 sequence (O43741 whole entry): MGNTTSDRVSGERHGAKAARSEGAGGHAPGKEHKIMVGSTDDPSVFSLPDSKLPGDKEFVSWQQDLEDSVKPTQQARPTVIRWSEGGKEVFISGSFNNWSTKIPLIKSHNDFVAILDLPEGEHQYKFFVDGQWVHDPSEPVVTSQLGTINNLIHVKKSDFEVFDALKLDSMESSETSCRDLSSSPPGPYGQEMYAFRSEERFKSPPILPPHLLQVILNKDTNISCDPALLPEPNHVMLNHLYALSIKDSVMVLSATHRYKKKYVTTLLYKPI
T1 sequence (P54619 whole entry partner): as the sequence (P54619 whole entry partner) above

On to `COc1nc(N2CC3(COC3)C2)ccc1-c1c(F)cc2[nH]cc(C(=O)O)c2c1F` [Example 41, 4,6-difluoro-5-(2-methoxy-6-(2-oxa-6-azaspiro[3.3]heptan-6-yl)pyridin-3-yl)-1H-indole-3-carboxylic acid], for which the pEC50 at AMPKα1β2γ1 was less than 5.00; at AMPKα1β1γ1, not below 7.30.
`COc1nc(N2CC3(CCC3)C2)ccc1-c1cc2c(C(=O)O)c[nH]c2cc1Cl` [Example 13, 6-chloro-5-(2-methoxy-6-(2-azaspiro[3.3]heptan-2-yl)pyridin-3-yl)-1H-indole-3-carboxylic acid]: the pEC50 at AMPKα1β2γ1 is less than 5.00; at AMPKα1β1γ1, not below 7.30.
For the compound `COc1nc(N2CC3(CC(O)C3)C2)ccc1-c1cc2c(C(=O)O)c[nH]c2cc1Cl` [Example 4, 6-chloro-5-(6-(6-hydroxy-2-azaspiro[3.3]heptan-2-yl)-2-methoxypyridin-3-yl)-1H-indole-3-carboxylic acid], the pEC50 on AMPKα1β2γ1 was less than 5.00; at AMPKα1β1γ1, not below 7.30.
Consider `COc1nc(N2CC3CC3(C#N)C2)ccc1-c1cc2c(C(=O)O)c[nH]c2cc1Cl` (racemic) [Example 15, racemic-6-chloro-5-(6-(1-cyano-3-azabicyclo[3.1.0]hexan-3-yl)-2-methoxypyridin-3-yl)-1H-indole-3-carboxylic acid], for which the pEC50 at AMPKα1β2γ1 is less than 5.00; at AMPKα1β1γ1 it was 7.00 to 7.30.
On to `COc1nc(N2CC3(CC3)C2)ccc1-c1cc2c(C(=O)O)c[nH]c2cc1Cl` [Example 12, 5-[6-(5-azaspiro[2.3]hexan-5-yl)-2-methoxy-3-pyridyl]-6-chloro-1H-indole-3-carboxylic acid], for which the figures for the pEC50 on AMPKα1β2γ1 and at AMPKα1β1γ1 were less than 5.00 and not below 7.30, respectively.
Consider `COc1nc(N2CC3CC3(O)C2)ccc1-c1cc2c(C(=O)O)c[nH]c2cc1Cl` (racemic) [Example 26, racemic-6-chloro-5-(6-(1-hydroxy-3-azabicyclo[3.1.0]hexan-3-yl)-2-methoxypyridin-3-yl)-1H-indole-3-carboxylic acid], for which the pEC50 was less than 5.00 on AMPKα1β2γ1 and not below 7.30 on AMPKα1β1γ1.
The corresponding values for `COc1nc(N2CC3(CCC3O)C2)ccc1-c1cc2c(C(=O)O)c[nH]c2cc1Cl` (racemic) [Example 25, racemic-6-chloro-5-(6-(5-hydroxy-2-azaspiro[3.3]heptan-2-yl)-2-methoxypyridin-3-yl)-1H-indole-3-carboxylic acid] are less than 5.00 and 7.00 to 7.30.
Turning to `COc1nc(N2C[C@@H]3COC[C@H]3C2)ccc1-c1cc2c(C(=O)O)c[nH]c2cc1Cl` [Example 33, 6-chloro-5-(2-methoxy-6-((3aR, 6aR)-tetrahydro-1H-furo[3,4-c]pyrrol-5(3H)-yl)pyridin-3-yl)-1H-indole-3-carboxylic acid], the pEC50 was 5.00 to 6.60 at AMPKα1β2γ1 and not below 7.30 on AMPKα1β1γ1.
For `COc1nc(N2CC3(CC(=O)N(C)C3)C2)ccc1-c1cc2c(C(=O)O)c[nH]c2cc1Cl` [Example 22, 6-chloro-5-(2-methoxy-6-(6-methyl-7-oxo-2,6-diazaspiro[3.4]octan-2-yl)pyridin-3-yl)-1H-indole-3-carboxylic acid] the same measures were less than 5.00 and not below 7.30.
In the case of `COc1nc(N2C[C@H]3CN(C(C)=O)C[C@H]3C2)ccc1-c1cc2c(C(=O)O)c[nH]c2cc1Cl` [Example 38, 5-(6-((3aR,6aS)-5-acetylhexahydropyrrolo [3,4-c]pyrrol-2(1H)-yl)-2-methoxypyridin-3-yl)-6-chloro-1H-indole-3-carboxylic acid], the pEC50 on AMPKα1β2γ1 is 5.00 to 6.60; at AMPKα1β1γ1, not below 7.30.
Regarding `COc1nc(N2C[C@@H]3[C@@H](CO)[C@@H]3C2)ccc1-c1cc2c(C(=O)O)c[nH]c2cc1Cl` [Example 3, 6-chloro-5-(6-((trans)-6-(hydroxymethyl)-3-azabicyclo [3.1.0]hexan-3-yl)-2-methoxypyridin-3-yl)-1H-indole-3-carboxylic acid], the pEC50 is 5.00 to 6.60 at AMPKα1β2γ1 and not below 7.30 at AMPKα1β1γ1.
